Results taken from patent US20020137929A1, “1 - (3-heterocyclylphenyl) isothiourea, -isourea, -guanidine and -amidine herbicidal agents” (Intellectual Property Department, BASF Aktiengesellschaft, priority 1998, published 2002).

Tests used:
[1] = system: CHEAL (Lambsquarters, Common); experiment: Postemergence herbicidal evaluation; assay type: in vivo, Chenopodium album; conditions: postemergence
Procedure, shortened: (§1)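 Visual 0–9 rating versus control (stand, vigor, malformation, size, chlorosis, overall appearance), taken four to five weeks post-spray. Two-week-old seedlings received roughly 0.0156–0.500 kg/ha active in acetone/water (50/50) with 0.5% TWEEN 20 via nozzle at 40 psi.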

[2] = system: CHEAL (Lambsquarters, Common); experiment: Preemergence herbicidal evaluation; assay type: in vivo, Chenopodium album; conditions: preemergence, rated 4-5 weeks after treatment, 0-9 scale
Procedure, shortened: (§2)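 Scores use a 0–9 visual scale covering stand, vigor, malformation, size and chlorosis relative to controls, rated four to five weeks after treatment. Before emergence, soil-planted seeds were sprayed with compound in aqueous acetone at roughly 0.0156–0.500 kg/ha and held in the greenhouse.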

[3] = system: CYPIR (Rice Flatsedge); experiment: Postemergence weed control under flooded paddy conditions; assay type: in vivo, Cyperus iria; conditions: postemergence weeds, rated 3 to 4 weeks after treatment
Procedure, shortened: (§3)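 Herbicidal effect is judged by eye on a 0–9 scale versus control, 3–4 weeks after dosing. Dosing is into flood water kept 1.5–3 cm over the soil, at about 0.0313–0.500 kg/ha in aqueous/acetone 50/50 v/v, on 3–5 cm weeds and 1.5–2.5-leaf rice seedlings.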

[4] = system: TRZAWR (Wheat, Winter, cv Riband); experiment: Preemergence herbicidal evaluation; assay type: in vivo, Triticum aestivum; conditions: preemergence, rated 4-5 weeks after treatment, 0-9 scale
Procedure, shortened: as §2

[5] = system: ABUTH (Velvetleaf); experiment: Preemergence herbicidal evaluation; assay type: in vivo, Abutilon theophrasti; conditions: preemergence, rated 4-5 weeks after treatment, 0-9 scale
Procedure, shortened: as §2

[6] = system: ECHCG (Barnyardgrass); experiment: Postemergence herbicidal evaluation; assay type: in vivo, Echinochloa crus-galli; conditions: postemergence
Procedure, shortened: as §1

[7] = system: ZEAMX (Corn, Field); experiment: Postemergence herbicidal evaluation; assay type: in vivo, Zea mays; conditions: postemergence
Procedure, shortened: as §1

[8] = system: GLXMAW (Soybean, Williams); experiment: Preemergence herbicidal evaluation; assay type: in vivo, Glycine max, (L.) Merr. cv Williams; conditions: preemergence, rated 4-5 weeks after treatment, 0-9 scale
Procedure, shortened: as §2

[9] = system: ZEAMX (Corn, Field); experiment: Preemergence herbicidal evaluation; assay type: in vivo, Zea mays; conditions: preemergence, rated 4-5 weeks after treatment, 0-9 scale
Procedure, shortened: as §2

[10] = system: ECHCG (Barnyardgrass); experiment: Preemergence herbicidal evaluation; assay type: in vivo, Echinochloa crus-galli; conditions: preemergence, rated 4-5 weeks after treatment, 0-9 scale
Procedure, shortened: as §2

[11] = system: CYPSE (Flatsedge); experiment: Postemergence weed control under flooded paddy conditions; assay type: in vivo, Cyperus serotinus; conditions: postemergence weeds, rated 3 to 4 weeks after treatment
Procedure, shortened: as §3

[12] = system: ABUTH (Velvetleaf); experiment: Postemergence herbicidal evaluation; assay type: in vivo, Abutilon theophrasti; conditions: postemergence
Procedure, shortened: as §1

[13] = system: IPOHE (Morningglory, Ivyleaf); experiment: Preemergence herbicidal evaluation; assay type: in vivo, Ipomoea hederacea; conditions: preemergence, rated 4-5 weeks after treatment, 0-9 scale
Procedure, shortened: as §2

[14] = system: ORYSAT (Rice, Tebonnet); experiment: Postemergence herbicidal evaluation; assay type: in vivo, Oryza sativa, (L.) Tebonnet; conditions: postemergence
Procedure, shortened: as §1

[15] = system: CASOB (Sicklepod); experiment: Preemergence herbicidal evaluation; assay type: in vivo, Cassia obtusifolia; conditions: preemergence, rated 4-5 weeks after treatment, 0-9 scale
Procedure, shortened: as §2

[16] = system: IPOHE (Morningglory, Ivyleaf); experiment: Postemergence herbicidal evaluation; assay type: in vivo, Ipomoea hederacea; conditions: postemergence
Procedure, shortened: as §1

[17] = system: SETVI (Foxtail, Green); experiment: Postemergence herbicidal evaluation; assay type: in vivo, Setaria viridis; conditions: postemergence
Procedure, shortened: as §1

Work on `CCOC(=O)CN1C(=O)C(CC(=O)OC(C)C(=O)OCC)S/C1=N/c1cc(-n2c(=O)cc(C(F)(F)F)n(C)c2=O)c(F)cc1Cl` (stereo not drawn) [Compound 87] yielded a CHEAL herbicidal rating ([1]; rate 0.0156 kg/ha) of 0.0, a CHEAL herbicidal rating ([1]; rate 0.0313 kg/ha) of 0.0 and a CHEAL herbicidal rating ([1]; rate 0.0625 kg/ha) of 3.0. The CHEAL herbicidal rating ([1]; rate 0.1250 kg/ha) was 4.0, the CHEAL herbicidal rating ([1]; rate 0.2500 kg/ha) was 9.0 and the CHEAL rating ([2]; 0.1250 kg/ha) was 4.0. For the same compound, the CHEAL rating ([2]; 0.2500 kg/ha) was 9.0, the CHEAL rating ([2]; 0.5000 kg/ha) was 9.0 and the “Herbicidal rating CYPIR” value ([3]; Rate 0.0313 kg/ha) was 5.0. The “Herbicidal rating CYPIR” value ([3]; Rate 0.0625 kg/ha) was 5.0, the “Herbicidal rating CYPIR” value ([3]; Rate 0.1250 kg/ha) was 5.0 and the “Herbicidal rating CYPIR” value ([3]; Rate 0.2500 kg/ha) was 5.0. For the same compound, the “Herbicidal rating CYPIR” value ([3]; Rate 0.5000 kg/ha) was 7.0, the TRZAWR rating ([4]; 0.1250 kg/ha) was 0.0 and the TRZAWR rating ([4]; 0.2500 kg/ha) was 0.0. For the same compound, the TRZAWR rating ([4]; 0.5000 kg/ha) was 1.0, the ABUTH rating ([5]; 0.1250 kg/ha) was 3.0 and the ABUTH rating ([5]; 0.2500 kg/ha) was 9.0. The ABUTH rating ([5]; 0.5000 kg/ha) was 9.0, the ECHCG herbicidal rating ([6]; rate 0.0156 kg/ha) was 0.0 and the ECHCG herbicidal rating ([6]; rate 0.0313 kg/ha) was 0.0. The ECHCG herbicidal rating ([6]; rate 0.0625 kg/ha) was 2.0, the ECHCG herbicidal rating ([6]; rate 0.1250 kg/ha) was 9.0 and the ECHCG herbicidal rating ([6]; rate 0.2500 kg/ha) was 9.0. The ZEAMX herbicidal rating ([7]; rate 0.0156 kg/ha) was 4.0, the ZEAMX herbicidal rating ([7]; rate 0.0313 kg/ha) was 4.5 and the ZEAMX herbicidal rating ([7]; rate 0.0625 kg/ha) was 5.5. For the same compound, the ZEAMX herbicidal rating ([7]; rate 0.1250 kg/ha) was 7.5, the ZEAMX herbicidal rating ([7]; rate 0.2500 kg/ha) was 8.0 and the GLXMAW rating ([8]; 0.1250 kg/ha) was 0.0. It also gave a GLXMAW rating ([8]; 0.2500 kg/ha) of 4.0, a GLXMAW rating ([8]; 0.5000 kg/ha) of 5.0 and a ZEAMX rating ([9]; 0.1250 kg/ha) of 0.0. It also gave a ZEAMX rating ([9]; 0.2500 kg/ha) of 0.0, a ZEAMX rating ([9]; 0.5000 kg/ha) of 1.0 and an ECHCG rating ([10]; 0.1250 kg/ha) of 0.0. The ECHCG rating ([10]; 0.2500 kg/ha) was 0.0, the ECHCG rating ([10]; 0.5000 kg/ha) was 0.0 and the “Herbicidal rating CYPSE” value ([11]; Rate 0.0313 kg/ha) was 0.0. The “Herbicidal rating CYPSE” value ([11]; Rate 0.0625 kg/ha) was 0.0, the “Herbicidal rating CYPSE” value ([11]; Rate 0.1250 kg/ha) was 5.0 and the “Herbicidal rating CYPSE” value ([11]; Rate 0.2500 kg/ha) was 5.0. For the same compound, the “Herbicidal rating CYPSE” value ([11]; Rate 0.5000 kg/ha) was 5.0, the ABUTH herbicidal rating ([12]; rate 0.0156 kg/ha) was 2.0 and the ABUTH herbicidal rating ([12]; rate 0.0313 kg/ha) was 4.0. For the same compound, the ABUTH herbicidal rating ([12]; rate 0.0625 kg/ha) was 9.0, the ABUTH herbicidal rating ([12]; rate 0.1250 kg/ha) was 9.0 and the ABUTH herbicidal rating ([12]; rate 0.2500 kg/ha) was 9.0. The IPOHE rating ([13]; 0.1250 kg/ha) was 1.0, the IPOHE rating ([13]; 0.2500 kg/ha) was 5.0 and the IPOHE rating ([13]; 0.5000 kg/ha) was 6.0. It also gave an ORYSAT herbicidal rating ([14]; rate 0.0156 kg/ha) of 0.0, an ORYSAT herbicidal rating ([14]; rate 0.0313 kg/ha) of 0.5 and an ORYSAT herbicidal rating ([14]; rate 0.0625 kg/ha) of 1.0. It also gave an ORYSAT herbicidal rating ([14]; rate 0.1250 kg/ha) of 1.5, an ORYSAT herbicidal rating ([14]; rate 0.2500 kg/ha) of 4.0 and a CASOB rating ([15]; 0.1250 kg/ha) of 0.0. It also gave a CASOB rating ([15]; 0.2500 kg/ha) of 0.0, a CASOB rating ([15]; 0.5000 kg/ha) of 2.0 and an IPOHE herbicidal rating ([16]; rate 0.0156 kg/ha) of 9.0. It also gave an IPOHE herbicidal rating ([16]; rate 0.0313 kg/ha) of 9.0, an IPOHE herbicidal rating ([16]; rate 0.0625 kg/ha) of 9.0 and an IPOHE herbicidal rating ([16]; rate 0.1250 kg/ha) of 9.0. It also gave an IPOHE herbicidal rating ([16]; rate 0.2500 kg/ha) of 9.0, an SETVI herbicidal rating ([17]; rate 0.0156 kg/ha) of 0.0 and an SETVI herbicidal rating ([17]; rate 0.0313 kg/ha) of 0.0. For the same compound, the SETVI herbicidal rating ([17]; rate 0.0625 kg/ha) was 2.0, the SETVI herbicidal rating ([17]; rate 0.1250 kg/ha) was 7.0 and the SETVI herbicidal rating ([17]; rate 0.2500 kg/ha) was 7.0.
